In ChEMBL document CHEMBL1201862, “PubChem BioAssay data set” (2004):
Where “and” joins values, the source holds several entries; their conditions need not be identical. Identical values can stand only once.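 These data come from cells grown in 96-well plates and exposed to compound for 48 hours at five concentrations. GI50: concentration for 50% inhibition of growth.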 Calls of active or inactive are those of the source. No stated cut-off is given here; in the data, active = GI50 up to about 1.1 µM and inactive = higher.

Tests used:
Assay in all cases: inhibition of tumour cell growth, NCI panel, 48 h
CAKI-1 = system: CAKI-1
SK-MEL-2 = system: SK-MEL-2
NCI-H522 = system: NCI-H522
NCI-H460 = system: NCI-H460
HOP-62 = system: HOP-62
SW-620 = system: SW-620
UACC-257 = system: UACC-257
SNB-19 = system: SNB-19
RPMI-8226 = system: RPMI-8226
HOP-92 = system: HOP-92
NCI-H23 = system: NCI-H23
Malme-3M = system: Malme-3M
SK-MEL-5 = system: SK-MEL-5
A549 = system: A549
HCT-15 = system: HCT-15
SK-MEL-28 = system: SK-MEL-28
OVCAR-4 = system: OVCAR-4
SF-295 = system: SF-295
MCF7 = system: MCF7
NCI-H226 = system: NCI-H226
MDA-N = system: MDA-N
KM12 = system: KM12
M14 = system: M14
PC-3 = system: PC-3
UACC-62 = system: UACC-62
HCC 2998 = system: HCC 2998
RXF 393 = system: RXF 393
LOX IMVI = system: LOX IMVI
COLO 205 = system: COLO 205
U-251 = system: U-251
IGROV-1 = system: IGROV-1
MDA-MB-435 = system: MDA-MB-435
ACHN = system: ACHN
K562 = system: K562
Hs-578T = system: Hs-578T
TK-10 = system: TK-10
HT-29 = system: HT-29
EKVX = system: EKVX
OVCAR-8 = system: OVCAR-8
OVCAR-5 = system: OVCAR-5
SF-268 = system: SF-268
HL-60 = system: HL-60
SN12C = system: SN12C
NCI/ADR-RES = system: NCI/ADR-RES
SNB-75 = system: SNB-75
SF-539 = system: SF-539
SR = system: SR
MOLT-4 = system: MOLT-4
UO-31 = system: UO-31
HCT-116 = system: HCT-116
SK-OV-3 = system: SK-OV-3
MDA-MB-231 = system: MDA-MB-231
BT-549 = system: BT-549
786-0 = system: 786-0
A498 = system: A498
OVCAR-3 = system: OVCAR-3

With `COc1ccc(-c2ncn(C[Si](C)(C)C)c2-c2ccc(OC)cc2)cc1` the GI50 (CAKI-1) was 5.85 µM (inactive), the GI50 (SK-MEL-2) was 7.08 µM (inactive) and the GI50 (NCI-H522) was 4.28 µM (inactive). The GI50 (NCI-H460) was 3.77 µM (inactive), the GI50 (HOP-62) was 12.6 µM (inactive) and the GI50 (SW-620) was 3.05 µM (inactive). The GI50 (UACC-257) was 4.93 µM (inactive), the GI50 (SNB-19) was 7.64 µM (inactive) and the GI50 (RPMI-8226) was 1.69 µM (inactive). For the same compound, the GI50 (HOP-92) was 4.7 µM (inactive), the GI50 (NCI-H23) was 3.87 µM (inactive) and the GI50 (Malme-3M) was 10.4 µM (inactive). For the same compound, the GI50 (SK-MEL-5) was 2.54 µM (inactive), the GI50 (A549) was 4.31 µM (inactive) and the GI50 (HCT-15) was 4.51 µM. The GI50 (SK-MEL-28) was 2.33 µM (inactive), the GI50 (OVCAR-4) was 7.82 µM (inactive) and the GI50 (SF-295) was 4.24 µM (inactive). For the same compound, the GI50 (MCF7) was 8.59 µM (inactive), the GI50 (NCI-H226) was 4.8 µM (inactive) and the GI50 (MDA-N) was 3.1 µM (inactive). The GI50 (KM12) was 4.92 µM (inactive), the GI50 (M14) was 3.59 µM (inactive) and the GI50 (PC-3) was 4.63 µM (inactive). The GI50 (UACC-62) was 3.2 µM (inactive), the GI50 (HCC 2998) was 3.17 µM (inactive) and the GI50 (RXF 393) was 6.25 µM (inactive). The GI50 (LOX IMVI) was 4.89 µM (inactive), the GI50 (COLO 205) was 2.54 µM (inactive) and the GI50 (U-251) was 6.9 µM (inactive). The GI50 (IGROV-1) was 6.21 µM (inactive), the GI50 (MDA-MB-435) was 3.73 µM (inactive) and the GI50 (ACHN) was 7.55 µM (inactive). The GI50 (K562) was 0.472 µM (active), the GI50 (Hs-578T) was 12.5 µM (inactive) and the GI50 (TK-10) was 7.24 µM (inactive). The GI50 (HT-29) was 2.84 µM (inactive), the GI50 (EKVX) was 3.13 µM (inactive) and the GI50 (OVCAR-8) was 7.06 µM (inactive). For the same compound, the GI50 (OVCAR-5) was 5.02 µM (inactive), the GI50 (SF-268) was 12.1 µM (inactive) and the GI50 (HL-60) was 1.72 µM (inactive). For the same compound, the GI50 (SN12C) was 11 µM (inactive), the GI50 (NCI/ADR-RES) was 5.08 µM (inactive) and the GI50 (SNB-75) was 13.1 µM (inactive). For the same compound, the GI50 (SF-539) was 10.5 µM (inactive), the GI50 (SR) was 6.19 µM (inactive) and the GI50 (MOLT-4) was 0.863 µM (active). The GI50 (UO-31) was 2.28 µM (inactive), the GI50 (HCT-116) was 2.92 µM (inactive) and the GI50 (SK-OV-3) was 20 µM (inactive). The GI50 (MDA-MB-231) was 12.9 µM (inactive), the GI50 (BT-549) was 22.4 µM (inactive) and the GI50 (786-0) was 5.15 µM (inactive).

`COc1cc2c3c(c4cc(OC)c(OC)cc4c2cc1OC)CN1CCC[C@H]1C3` [(S)-TYLOPHORINE] was tested, and the GI50 (CAKI-1) was < 16.3 nM (active) and 25.8 nM (active), the GI50 (NCI-H522) was 56.6 nM (active) and < 40.6 nM (active) and the GI50 (UACC-257) was 14.3 nM (active) and 26.6 nM (active). For the same compound, the GI50 (SNB-19) was < 10 nM (active) and 9.35 nM (active), the GI50 (A549) was < 10 nM (active) and 13.2 nM (active) and the GI50 (SK-MEL-28) was < 13.7 nM (active) and 9.06 nM (active). The GI50 (MCF7) was 0.0107 µM (active), the GI50 (NCI-H226) was 0.0294 µM (active) and the GI50 (A498) was < 0.01 µM (active). For the same compound, the GI50 (LOX IMVI) was < 10 nM (active) and 11.9 nM (active), the GI50 (ACHN) was < 10 nM (active) and 14.5 nM (active) and the GI50 (Hs-578T) was 0.404 µM (active). The GI50 (TK-10) was < 16.7 nM (active) and 19.4 nM (active), the GI50 (OVCAR-5) was < 12.1 nM (active) and 16.6 nM (active) and the GI50 (UO-31) was 39.9 nM (active) and < 20.8 nM (active). For the same compound, the GI50 (HCT-116) was < 10 nM (active) and 17.9 nM (active), the GI50 (SK-OV-3) was < 12.2 nM (active) and 12.6 nM (active) and the GI50 (MDA-MB-231) was < 0.0109 µM (active). For the same compound, the GI50 (BT-549) was 22.5 nM (active) and 39.5 nM (active) and the GI50 (OVCAR-3) was 58.9 nM (active) and 42.3 nM (active).
